Test results: patent US8609635B2, “Fused tricyclic silyl compounds and methods of use thereof for the treatment of viral diseases” (priority 2010, dated 2013)

Key:
HCV replicon gt2a_JFH = experiment: Cell-based HCV replicon assay (TaqMan), genotype 2a (JFH); details: Hepatitis C virus, 72 h, replicon 2a (JFH); replicon RNA by TaqMan, day 3
How it was run: (§1)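 Replicon cells seeded at 5000 cells/well with compound (10 serial 2-fold dilutions from 250 μM to 1 μM top dose; 0.5% DMSO, 5% FBS) and lysed on day 3. Replicon RNA quantified by multiplex TaqMan RT-PCR (NS5B amplicon, GAPDH control); ΔCT versus concentration fitted to sigmoid dose-response. Chimeras carry patient-isolate NS5A.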

[1] = Pharmacokinetic analysis in dogs; type: in vivo, male beagle dogs; details: Dog, dihydrochloride salt, 2 mpk/PO, 1 mpk/IV
Method: Various pharmacokinetic parameters for compound 56 were measured in rats, dogs and monkeys as described below.
Following an overnight fast, male beagle dogs were dosed with the dihydrochloride salt of compound 56 orally at 2 mg/kg as a suspension in 0.4% hydroxylpropyl methylcellulose (HPMC) or intravenously at 1 mg/kg as a solution in 20% hydroxypropyl-β-cyclodextrin (20% HPβCD). For oral dosing, the animals were typically restrained by hand and dosed by oro-gastric intubation. Dogs were fed approximately 4 hours after dosing. Blood samples were collected from the jugular or cephalic vein at 0.25, 0.5, 1, 2, 4, 6, 8, 12, 24, 48, 72 and 96 hrs (PO) and 0.167, 0.25, 0.5, 1, 2, 4, 6, 8, 12, 24, 48, 72 and 96 hrs (IV) post-dosing and centrifuged to generate plasma. The plasma samples were stored at […] until analysis.
Collected plasma samples were analyzed for the presence of compound 56 using LC-MS/MS as described below.
The HPLC/API-MS/MS system for the example data consisted of a HPLC pumping system and a auto sampler with the sample tray refrigeration option connected directly to a triple quadrupole mass spectrometer with an API source. Typical HPLC methods for the example data was based on a fast gradient of two solvents: solvent A consisted of 0.1% formic acid in water, and solvent B consisted of 0.1% formic acid in acetonitrile. A fast linear gradient (start at 90% A for 0.2 min, ramp to 95% B from 0.2 to 0.5 min, hold at 95% B […], then ramp back to 90% A from 1.0 to 1.1 min, then hold at, […] from 1.1 to 1.2 min) was used. The flow rate for the HPLC system was set to 1 mL/min throughout the HPLC gradient; the HPLC column was a Halo C18 column (2.7 micron particle size, 50×2.1 mm). The example compounds were analyzed by positive ion atmospheric pressure chemical ionization tandem mass spectrometry (APCI-MS/MS). As a general procedure, selected reaction monitoring (SRM) methods were developed for each compound prior to analysis of the plasma samples. Normally, the individual SRM transitions were based on a fragmentation from the protonated molecule ([MH].) to a characteristic product ion.
Using the methods described above, the following pharmacokinetic parameters were calculated in rats, dogs and monkeys and the results are summarized in the table below.

HCV replicon gt1a_H77 = experiment: Cell-based HCV replicon assay (TaqMan), genotype 1a (H77); details: Hepatitis C virus, 72 h, replicon 1a (H77); replicon RNA by TaqMan, day 3
How it was run: as §1

[2] = test system: HCV replicon 1a (L31V) mutant; experiment: Cell-based HCV replicon assay (TaqMan), genotype 1a mutant L31V; details: Hepatitis C virus, 72 h, read-out: HCV replicon EC50 1a (L31V)
Method: Measurement of inhibition by compounds of the present invention was performed using the HCV replicon system. Several different replicons encoding different HCV genotypes or mutations were used. In addition, potency measurements were made using different formats of the replicon assay, including different ways of measurements and different plating formats. See Jan M. Vrolijk et al., A replicons-based bioassay for the measurement of interferons in patients with chronic hepatitis C, 110 J. VIROLOGICAL METHODS 201 (2003); Steven S. Carroll et al., Inhibition of Hepatitis C Virus RNA Replication by 2′-Modified Nucleoside Analogs, 278(14) J. BIOLOGICAL […] 11979 (2003). However, the underlying principles are common to all of these determinations, and are outlined below.
Compounds of the present invention were assayed for cell-based anti-HCV activity using the following protocol. Replicon cells were seeded at 5000 cells/well in 96-well collagen I-coated Nunc plates in the presence of the test compound. Various concentrations of test compound, typically in 10 serial 2-fold dilutions, were added to the assay mixture, with the starting concentration ranging from 250 μM to 1 μM. The final concentration of DMSO was 0.5%, fetal bovine serum was 5%, in the assay media. Cells were harvested on day 3 by the addition of 1× cell lysis buffer (Ambion cat #8721). The replicon RNA level was measured using real time PCR (TaqMan® assay). The amplicon was located in 5B. The PCR primers were: 5B.2F, […] (SEQ. ID NO. 1); 5B.2R, […] (SEQ. ID NO. 2); the probe sequence was FAM-labeled […] (SEQ. ID NO. 3). GAPDH RNA was used as endogenous control and was amplified in the same reaction as NS5B (multiplex PCR) using primers and VIC-labeled probe recommended by the manufacturer (PE Applied Biosystem). The real-time RT-PCR reactions were run on ABI PRISM 7900HT Sequence Detection System using the following program: 48° C. for 30 minutes, 95° C. for 10 minutes, 40 cycles of 95° C. for 15 sec, 60° C. for 1 minute. The ΔCT values (CT5B-CTGAPDH) were plotted against the concentration of test compound and fitted to the sigmoid dose-response model using XLfit4 (MDL). […] Alternatively, to quantitate the absolute amount of replicon RNA, a standard curve was established by including serially diluted T7 transcripts of replicon RNA in the Taqman assay. All TaqMan® reagents were from PE Applied Biosystems. Such an assay procedure was described in detail in e.g. Malcolm et al., Antimicrobial Agents and Chemotherapy 50: 1013-1020 (2006).
Wherein gt1a_H77 was prepared as described in Yi et al., J Virol. 2004, 78(15):7904-15; gt1b_con1 was prepared as described in Lohmann et al., Science 1999, 285(5424):110-3; and gt2a_JFH was prepared as described in Kato et al., Gastroenterology. 2003, 125(6):1808-17. Chimeric replicons contain NS5A from patient isolates of genotypes 1a, 1b, 2b, 3a and 4a as indicated.

[3] = test system: HCV replicon 1a (Y93H) mutant; experiment: Cell-based HCV replicon assay (TaqMan), genotype 1a mutant Y93H; details: Hepatitis C virus, 72 h, read-out: HCV replicon EC50 1a (Y93H)
How it was run: as §1

## COC(=O)N[C@H](C(=O)N1CC(F)(F)C[C@H]1c1ncc(-c2ccc(-c3ccc4c(ccc5nc([C@@H]6C[Si](C)(C)CN6C(=O)[C@@H](NC(=O)OC)C(C)C)[nH]c54)c3)cc2)[nH]1)C(C)C [Compound 56]
HCV replicon gt2a_JFH
  EC50: 0.027 nM
[1]
  Effective Half-Life: 18 h
  Volume of Distribution: 1.3 L/kg
[1]; dose-normalized AUC between PO and IV
  Oral Bioavailability: 8.7%
[1]; male, beagle, plasma, 1 mg/kg, read-out: Systemic Clearance
  clearance: 0.8 mL/min/kg
HCV replicon gt1a_H77
  EC50: 0.016 nM
[2]
  EC50: 16 nM
[3]
  EC50: 46 nM
